Data set [1] in a line: Solubility tests in water, SGF, FaSSIF, FeSSIF at 37° C. (Example 5). The format is physicochemical. Particulars: for solubility at 1 h / solubility at 24 h: 37 °C, thermodynamic from solid; for solubility at 1 h: read-out: Solubility (mg/mL) (1 h); for solubility at 24 h: read-out: Solubility (mg/mL) (24 h). On the procedure:
Experimental procedures: 30 mg (in water) or 15 mg of a sample was weighed out and added to a 4 mL vial; 3 mL of a medium to be tested (water, SGF, FaSSIF, or FeSSIF) was added; the mixture was continuously stirred at 37° C.; 0.5 mL of the sample was separately collected at 1 h and 24 h; centrifugation was performed at 12000 rpm for 10 min; the supernatant was diluted with 50% aqueous acetonitrile solution to an appropriate multiple; and the concentration of the supernatant was determined.
Control and linearity: 10 mg of the compound of formula I was weighed out and added to a 50 mL volumetric flask, 50% aqueous acetonitrile solution was added for dissolution, and the mixture was diluted to volume. Two parts were prepared in parallel. The control of the compound of formula I was taken and diluted with 50% aqueous acetonitrile solution to 100 μg/mL, 50 μg/mL, and 10 μg/mL, 5 μL of the sample was injected, and a standard curve was plotted.

For the next data set, the target named is Complement factor B (Homo sapiens, UniProt P00751). As to the kind of experiment: Optical surface plasmon resonance (SPR) binding capacity assay. As to the method:
An SPR experiment was carried out at 25° C. In the experiment, a PBS buffer supplemented with 0.05% (v/v) P20 and 5% DMSO was used as a running buffer, and the analytical instrument Biacore 8K of GE Healthcare was used. A CM7 chip (GE Healthcare) was activated with 400 mM EDC and 100 mM NHS at a flow rate of 30 μL/min for 420 s. […] Then the assay chip was treated with 1 M ethanolamine hydrochloride at a flow rate of 10 μL/min for 300 s for chip blocking. The concentration of the test compound was 500 μM, the binding time was 120 s, and the dissociation time was 300 s. Data analysis was performed using a 1:1 binding model (Biacore Insight Evaluation Software, Version 2.0.15.12933).
In general terms: Surface plasmon resonance follows binding to a sensor surface in real time, without labels.

Data set [2] has as its target T1, complement factor B in human serum (Homo sapiens, UniProt P00751).
T1 construct: from tissue; host or cells: normal human serum (NHS)
As to the kind of experiment: Complement hemolytic activity assay (rabbit erythrocytes, normal human serum). Particulars: versus control compound. Format: cell-based. As to the method: Prior to the experiment, the optimal concentration of normal human serum (NHS) required to achieve 100% lysis of rabbit erythrocytes (REs) was obtained by titration testing. […] A GVB0 buffer containing 10 mM Mg-EGTA and containing NHS and RE but no test compound was used as a positive control group (100% lysis). A GVB0 buffer containing 10 mM Mg-EGTA and containing inactivated NHS (heated at 56° C. for 30 min or at 65° C. for 5 min) and RE but no test compound was used as a negative control group (0% lysis). […] Absorbance at 415 nm (A415) was measured using a microplate reader (Molecular Devices, SpectraMax i3X). IC50 values were calculated from percent hemolysis as a function of test compound concentration by non-linear regression.

Data set [3] in a line: Liver microsomal stability experiment (rat). The format is in vitro ADME. As to conditions: rat liver microsomes. On the procedure:
(§1) A 0.1 M solution of dipotassium phosphate in distilled water (containing 1 mM ethylenediaminetetraacetic acid) was taken. Then the pH was adjusted to 7.4 with a 0.1 M solution of potassium dihydrogen phosphate in distilled water (containing 1 mM ethylenediaminetetraacetic acid).
(§2) • Rat: SD Rat Liver Microsomes, Cat. No.: LM-DS-02M, RILD Research Institute for Liver Diseases (Shanghai) Co. Ltd. • Monkey: Cynomolgus Monkey Liver Microsomes, Cat. No.: LM-SXH-02M, RILD Research Institute for Liver Diseases (Shanghai) Co. Ltd. • Human: Pooled Human Liver Microsomes (Mongolian), Cat. No.: LM-R-02M, RILD Research Institute for Liver Diseases (Shanghai) Co. Ltd.
(§3) A 10 mM solution of each of the control compound and test compounds was prepared in DMSO. Then 10 μL of the solution was added to 190 μL of acetonitrile to form a 0.5 mM stock solution. 1.5 μL of the 0.5 mM stock solution was measured out, and […] of 20 mg/mL liver microsomes and 479.75 μL of the buffer were added. (The actual preparation amount can be adjusted according to use).
(§4) 10 mg/mL of reduced coenzyme II (NADPH) was prepared in the buffer. A 96-well plate was placed on ice. Wells corresponding to different time points (0, 10, 30, 60 and 90 min, Non-NADPH) were set for each compound. […] The mixture was analyzed on an AB SCIEX ExionLC-Triple Quad 5500 high-performance liquid chromatograph-mass spectrometer. […]

Data set [4] can be described thus: Liver microsomal stability experiment (monkey). Format: in vitro ADME, cynomolgus monkey. As to conditions: monkey liver microsomes. As to the method: as §1, §2, §3, §4
The nature of data set [5]: PK of single intragastric administration to cynomolgus monkeys (plasma concentration). Format: in vivo. Particulars: intragastric 3 mpk and 30 mpk, same dose as control compound. As to the method:
(§5) Cynomolgus monkeys were used. Each group consisted of 3 cynomolgus monkeys, and they were given the control compound at 3 mpk, the control compound at 30 mpk, the compound of formula I at 3 mpk, and the compound of formula I at 30 mpk by intragastric administration. Blood was collected at different time points and used for drug concentration analysis and complement activity detection. The compound concentration in plasma was determined by LC-MS/MS. The complement activity in serum was determined using a wieslab assay (Svar Life Science AB, COMPL AP330 RUO) kit, Normal Human Serum (Complement Technology, NHS).

The test system of data set [6] is cynomolgus monkey serum AP activity. As to the kind of experiment: PD of single intragastric administration to cynomolgus monkeys (serum complement AP activity, wieslab assay). Format: in vivo. Particulars: intragastric 3 mpk and 30 mpk. On the procedure:
as §5

[7] abbreviates: SGF, simulated gastric fluid, SGF.

Results on 1 compound are retold here after US20260151379A1, “SALT TYPE AND CRYSTAL FORM OF COMPLEMENT FACTOR B INHIBITOR, AND PREPARATION METHOD THEREFOR AND APPLICATION THEREOF” (SHANGHAI MEIYUE BIOTECH DEVELOPMENT CO., LTD., priority 2022, published 2026).

Where two headings read alike, the source gives them in different places.

Chain of Complement factor B (P00751 26-764): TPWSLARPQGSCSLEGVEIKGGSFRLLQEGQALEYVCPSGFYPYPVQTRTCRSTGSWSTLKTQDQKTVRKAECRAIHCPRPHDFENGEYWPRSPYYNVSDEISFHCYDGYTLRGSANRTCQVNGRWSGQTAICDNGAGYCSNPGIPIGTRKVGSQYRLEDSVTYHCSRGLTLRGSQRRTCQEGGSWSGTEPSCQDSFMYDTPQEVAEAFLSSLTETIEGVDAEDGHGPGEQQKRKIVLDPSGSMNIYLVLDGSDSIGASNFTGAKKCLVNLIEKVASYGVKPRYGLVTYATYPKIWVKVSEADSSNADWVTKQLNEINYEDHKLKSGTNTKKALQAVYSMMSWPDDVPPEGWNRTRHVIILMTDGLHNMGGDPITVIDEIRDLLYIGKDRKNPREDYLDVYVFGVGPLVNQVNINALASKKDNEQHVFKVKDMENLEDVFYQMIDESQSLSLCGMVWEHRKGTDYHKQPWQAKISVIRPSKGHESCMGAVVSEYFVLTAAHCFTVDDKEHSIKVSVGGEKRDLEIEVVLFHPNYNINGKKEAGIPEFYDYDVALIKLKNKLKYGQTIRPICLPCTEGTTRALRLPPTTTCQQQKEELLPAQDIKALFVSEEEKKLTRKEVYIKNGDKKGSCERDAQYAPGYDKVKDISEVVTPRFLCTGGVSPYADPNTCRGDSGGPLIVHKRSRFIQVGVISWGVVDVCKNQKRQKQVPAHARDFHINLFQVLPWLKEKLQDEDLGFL
T1 sequence (P00751 26-764): as above

With `COc1cc(C)c2[nH]ccc2c1CN1CC[C@H](OCC2CC2)C[C@H]1c1ccc(C(=O)O)cc1` [Compound of formula I], the “Final pH” value in data set [1] (FaSSIF) amounted to 6.44; in data set [1] (FessIF), 5.03; in data set [1] (SGF), 1.74; in data set [1] (Water), 8.73. Moreover, the results for the “Solubility (mg/mL) (1 h)” value in data set [1] (FaSSIF) and in data set [1] (Water) were 0.22 mg/mL and 0.37 mg/mL, respectively. For the same compound, the “Solubility (mg/mL) (24 h)” value amounted to 0.19 mg/mL in data set [1] (FaSSIF) and 0.31 mg/mL in data set [1] (Water). For the same compound, the solubility at 1 h in data set [1] (FeSSIF, fessif, FeSSIF) was 0.37 mg/mL; in data set [1] (setting [7]), 5.51 mg/mL. In addition, the solubility at 24 h is 0.35 mg/mL in data set [1] (FeSSIF, fessif, FeSSIF) and 5.48 mg/mL in data set [1] (setting [7]). The “Rmax (RU)” value on Complement factor B (test compound 500 μM, 25° C., 1:1 binding model) is on record as 274.2 RU. Moreover, the “Binding capacity to the target protein (in words)” value at Complement factor B (versus control compound) was “significantly superior to that of the control compound”. Moreover, the “Inhibitory activity against complement factor B in human serum (in words)” value in data set [2] is recorded as “significantly better inhibitory activity against complement factor B in human serum than that of the control compound”. The “MMS (rat) Remaining (T = 90 min)” value in data set [3] came out at 89.14%. In addition, the “MMS (monkey) Remaining (T = 90 min)” value in data set [4] was determined as 93.32%. For the same compound, in data set [5], the “Mean plasma concentration (in words, FIG. 21)” value is given as “significantly higher mean plasma concentration than that of the control compound”. For the same compound, in data set [6], the “Inhibition of cynomolgus monkey serum AP activity (in words, FIG. 22)” value is given as “can effectively inhibit the cynomolgus monkey serum AP activity”.
